US9808466B2, “Macrocyclic compounds as protein kinase inhibitors” (Fundación Centro Nacional de Investigaciones Oncologicas …, priority 2011, dated 2017)
Where two headings read alike, the source gives them in different places.

Assays:
PI3K (p110α/p85α) = biological target: T1, PI3K (p110α/p85α) (Homo sapiens, UniProt P42336); assay: PI3K activity assay (ADP Hunter Plus); type: biochemical
T1 construct: purchased Carna Biosciences 07CBS-0402A
Protocol: The kinase activity was measured by using the commercial ADP Hunter™ Plus assay available from DiscoveRx (#33-016), which is a homogeneous assay to measure the accumulation of ADP, a universal product of kinase activity. […] Reaction was carried out for 1 hour at 25° C. Reagent A and B were sequentially added to the wells and plates were incubated for 30 min at 37° C. Fluorescence counts were read in a Victor instrument (Perkin Elmer) with the recommended settings (544 and 580 nm as excitation and emission wavelengths, respectively). Values were normalized against the control activity included for each enzyme (i.e., 100% PI3 kinase activity, without compound). These values were plotted against the inhibitor concentration and were fit to a sigmoid dose-response curve by using the Graphad software.

mTOR = biological target: T2, mTOR (Homo sapiens, UniProt P42345); assay: mTOR assay (LanthaScreen kinase activity assay); type: biochemical
T2 construct: purchased Invitrogen PV4754
Protocol: The enzymatic mTOR activity was measured using a LanthaScreen™ kinase activity assay (Invitrogen). The enzyme was purchased from Invitrogen (PV4754), as well as the GFP-labeled substrate (4EBP1-GFP; PV4759) and the Tb-anti-p4EBP1(pThr46) antibody (PV4757). The assay was performed in 50 mM HEPES buffer, pH 7.5, containing 1.5 mM MnCl2, 10 mM MgCl2, 1 mM EGTA, 2.5 mM DTT and 0.01% Tween-20. The concentration of the assay components were the following: 0.24 nM mTOR kinase, 400 nM 4EBP1-GFP, […] and serial dilutions of the compound (inhibitor) to be evaluated. After 1 h incubation at room temperature, 20 mM EDTA was used to stop the reaction and terbium-labeled antibody (4 nM) added to detect phosphorylated product. The antibody associates with the phosphorylated product resulting in an increased TR-FRET value. The TR-FRET value (a dimensionless number) was calculated as the ratio of the acceptor signal (GFP, emission at 520 nm) to the donor signal (terbium, emission at 495 nm). Values were plotted against the inhibitor concentration and fitted to a sigmoid dose-response curve using GraphPad software.

PIM-1 = biological target: T3, PIM-1 (Homo sapiens, UniProt P11309); assay: PIM-1 biochemical assay (ADP Hunter); conditions: PIM1
T3 construct: histidine tag (C); made in house
Text: The biochemical assay to measure PIM-1 activity relies on the ADP Hunter assay kit (DiscoveRx Corp., Cat. #90-0077), that determines the amount of ADP as direct product of the kinase enzyme activity.
The enzyme has been expressed and purified in-house as a recombinant human protein with a C-terminal histidine tag. The protein is active and stable.
Assay conditions were as indicated by the kit manufacturers with the following adaptations for the kinase activity step: • Kinase assay buffer and assay volume stay as recommended (15 mM HEPES, pH 7.4, 20 mM NaCl, 1 mM EGTA, 0.02% Tween 20, 10 mM MgCl2 and 0.1 mg/ml bovine γ-globulins/75 μl assay volume) • Incubation time and temperature: 60 min at 30° C. • PIM-1 concentration: 50 pg/μl • ATP concentration: 100 μM • PIM-1 substrate peptide: PIMtide ([…]) (SEQIDNO. 1) • Peptide concentration: 60 μM • Positive control for kinase activity inhibition: 1-10 μM Staurosporine • DMSO concentration have to stay below 2% during the kinase reaction
Assays were performed in either 96 or 384-well plates. The final outcome of the coupled reactions provided by the kit is the release of the fluorescent product Resorufin and has been measured with a multilabel HTS counter VICTOR V (PerkinElmer) using an excitation filter at 544 nm and an emission filter at 580 nm.

[1] = read-out: PI3K alpha activity, IC50 (semi-quantitative class)
[2] = read-out: PI3K alpha actual IC50 (in parentheses)
[3] = read-out: mTOR activity, IC50 (semi-quantitative class)
[4] = read-out: mTOR actual IC50 (in parentheses)
[5] = read-out: PIM-1 activity, IC50 (semi-quantitative class)

T3 sequence (P11309 whole entry): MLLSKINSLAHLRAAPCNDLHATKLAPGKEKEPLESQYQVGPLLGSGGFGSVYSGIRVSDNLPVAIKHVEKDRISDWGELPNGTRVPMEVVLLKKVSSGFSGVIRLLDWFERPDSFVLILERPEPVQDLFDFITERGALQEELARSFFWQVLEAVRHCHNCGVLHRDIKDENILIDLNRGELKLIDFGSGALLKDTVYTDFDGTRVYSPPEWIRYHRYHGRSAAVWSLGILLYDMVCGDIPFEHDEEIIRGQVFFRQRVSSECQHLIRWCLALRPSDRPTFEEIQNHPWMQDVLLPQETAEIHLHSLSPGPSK
T1 sequence (P42336 whole entry): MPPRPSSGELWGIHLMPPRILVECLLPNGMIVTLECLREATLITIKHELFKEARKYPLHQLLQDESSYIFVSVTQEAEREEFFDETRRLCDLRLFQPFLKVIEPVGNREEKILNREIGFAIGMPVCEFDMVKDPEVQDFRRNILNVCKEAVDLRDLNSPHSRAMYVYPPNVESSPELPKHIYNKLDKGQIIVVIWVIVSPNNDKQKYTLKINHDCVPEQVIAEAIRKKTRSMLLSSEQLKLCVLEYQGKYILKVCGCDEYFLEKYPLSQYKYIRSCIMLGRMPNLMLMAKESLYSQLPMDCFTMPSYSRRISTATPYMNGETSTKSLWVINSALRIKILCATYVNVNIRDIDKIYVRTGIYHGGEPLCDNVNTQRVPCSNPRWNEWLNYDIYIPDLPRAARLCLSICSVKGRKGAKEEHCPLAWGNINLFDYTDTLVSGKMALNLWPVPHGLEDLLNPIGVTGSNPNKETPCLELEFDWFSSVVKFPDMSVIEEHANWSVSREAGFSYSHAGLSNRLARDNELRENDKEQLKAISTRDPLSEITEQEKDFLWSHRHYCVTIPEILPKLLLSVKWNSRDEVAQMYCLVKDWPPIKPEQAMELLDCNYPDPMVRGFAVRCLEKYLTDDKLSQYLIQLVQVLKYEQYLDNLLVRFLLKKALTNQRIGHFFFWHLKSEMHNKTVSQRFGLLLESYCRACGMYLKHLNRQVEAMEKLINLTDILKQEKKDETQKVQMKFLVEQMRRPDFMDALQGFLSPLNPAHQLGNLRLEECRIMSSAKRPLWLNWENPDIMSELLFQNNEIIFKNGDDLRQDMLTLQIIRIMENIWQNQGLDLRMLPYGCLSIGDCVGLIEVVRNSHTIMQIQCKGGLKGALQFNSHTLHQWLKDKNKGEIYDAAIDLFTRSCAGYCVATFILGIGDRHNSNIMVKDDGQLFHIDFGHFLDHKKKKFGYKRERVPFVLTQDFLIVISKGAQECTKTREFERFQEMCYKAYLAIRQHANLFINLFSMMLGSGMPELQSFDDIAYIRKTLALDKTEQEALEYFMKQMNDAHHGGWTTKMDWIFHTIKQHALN
T1 sequence (P27986 whole entry partner): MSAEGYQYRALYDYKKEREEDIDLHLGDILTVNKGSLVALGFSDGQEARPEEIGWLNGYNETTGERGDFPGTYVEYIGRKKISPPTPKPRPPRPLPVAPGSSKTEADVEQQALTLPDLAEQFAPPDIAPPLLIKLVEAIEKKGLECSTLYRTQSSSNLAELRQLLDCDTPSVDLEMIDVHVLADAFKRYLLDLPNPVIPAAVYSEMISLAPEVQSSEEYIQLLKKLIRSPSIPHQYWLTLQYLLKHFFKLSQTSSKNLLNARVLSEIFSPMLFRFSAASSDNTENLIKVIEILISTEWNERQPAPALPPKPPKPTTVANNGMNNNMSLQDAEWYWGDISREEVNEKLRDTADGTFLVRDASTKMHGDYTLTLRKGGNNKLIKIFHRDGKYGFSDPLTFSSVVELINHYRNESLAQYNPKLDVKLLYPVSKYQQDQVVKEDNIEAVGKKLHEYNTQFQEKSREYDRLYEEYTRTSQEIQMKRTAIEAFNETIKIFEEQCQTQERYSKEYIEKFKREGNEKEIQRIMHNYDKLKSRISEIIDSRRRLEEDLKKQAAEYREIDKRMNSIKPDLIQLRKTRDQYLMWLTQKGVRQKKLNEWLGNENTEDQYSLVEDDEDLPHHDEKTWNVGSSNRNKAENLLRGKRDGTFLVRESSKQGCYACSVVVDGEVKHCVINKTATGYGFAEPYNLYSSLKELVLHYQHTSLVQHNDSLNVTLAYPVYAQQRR
T2 sequence (P42345 1360-2549 limits assumed): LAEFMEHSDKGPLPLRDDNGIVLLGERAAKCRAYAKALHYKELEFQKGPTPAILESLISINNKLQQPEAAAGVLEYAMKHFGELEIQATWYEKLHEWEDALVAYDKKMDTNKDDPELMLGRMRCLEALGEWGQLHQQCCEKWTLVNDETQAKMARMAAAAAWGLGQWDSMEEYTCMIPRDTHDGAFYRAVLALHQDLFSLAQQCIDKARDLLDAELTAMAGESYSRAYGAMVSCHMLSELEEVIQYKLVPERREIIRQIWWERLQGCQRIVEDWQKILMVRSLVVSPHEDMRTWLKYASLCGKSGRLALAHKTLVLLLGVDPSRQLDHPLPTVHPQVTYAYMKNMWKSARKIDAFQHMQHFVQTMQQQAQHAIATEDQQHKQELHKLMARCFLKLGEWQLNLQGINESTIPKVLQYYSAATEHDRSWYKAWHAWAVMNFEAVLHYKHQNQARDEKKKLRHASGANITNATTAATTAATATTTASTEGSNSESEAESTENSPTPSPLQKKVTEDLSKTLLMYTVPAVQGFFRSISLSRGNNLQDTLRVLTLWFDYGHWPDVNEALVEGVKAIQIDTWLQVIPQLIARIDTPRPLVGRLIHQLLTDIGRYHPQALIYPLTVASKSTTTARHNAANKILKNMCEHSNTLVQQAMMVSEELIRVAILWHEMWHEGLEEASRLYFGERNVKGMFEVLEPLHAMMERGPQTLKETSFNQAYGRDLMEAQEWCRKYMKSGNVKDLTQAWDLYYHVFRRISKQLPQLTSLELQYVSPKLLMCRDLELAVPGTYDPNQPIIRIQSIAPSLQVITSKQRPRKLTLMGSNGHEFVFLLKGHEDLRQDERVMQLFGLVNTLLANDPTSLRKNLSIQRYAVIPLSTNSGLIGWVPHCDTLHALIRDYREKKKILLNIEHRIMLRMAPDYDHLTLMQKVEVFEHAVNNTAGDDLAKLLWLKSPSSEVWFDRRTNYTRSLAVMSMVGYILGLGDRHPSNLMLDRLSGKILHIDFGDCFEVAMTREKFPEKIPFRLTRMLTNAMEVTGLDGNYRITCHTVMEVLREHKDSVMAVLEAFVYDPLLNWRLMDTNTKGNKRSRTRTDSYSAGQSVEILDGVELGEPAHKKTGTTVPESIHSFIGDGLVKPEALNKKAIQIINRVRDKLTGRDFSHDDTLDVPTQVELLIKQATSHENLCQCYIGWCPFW

Structure (SMILES)	IC50 (PI3K (p110α/p85α); [1])	IC50 (PI3K (p110α/p85α); [2])	IC50 (mTOR; [3])	IC50 (mTOR; [4])	IC50 (PIM-1; [5])	IC50 (PIM-1; read-out: PIM-1 actual IC50 (in parentheses))	IC50 (PI3K (p110α/p85α); read-out: PI3K alpha IC50 (in parentheses))	IC50 (PI3K (p110α/p85α); read-out: PI3K alpha activity (semi-quantitative IC50))	IC50 (mTOR; read-out: mTOR activity (semi-quantitative IC50))
COc1ncc2cc1NS(=O)(=O)c1cccc(c1)C(=O)NCc1cncc(c1)-c1ccnc3ccc-2cc13 [compound 1]	< 100 nM	2 nM	< 100 nM	64 nM	> 1000 nM	–	–	–	–
O=C1NCc2cncc(c2)-c2ccnc3ccc(cc23)-c2cnc(O)c(c2)NS(=O)(=O)c2cccc1c2 [compound 2]	100 to 1000 nM	–	> 1000 nM	–	> 1000 nM	–	–	–	–
COc1ncc2cc1NS(=O)(=O)c1cccc(c1)C(=O)NCc1ccc(F)c(c1)-c1ccnc3ccc-2cc13 [compound 4]	< 100 nM	3 nM	100 to 1000 nM	–	> 1000 nM	–	–	–	–
COc1ncc2cc1NS(=O)(=O)c1cccc(c1)C(=O)NCc1cccc(c1F)-c1ccnc3ccc-2cc13 [compound 5]	< 100 nM	23 nM	100 to 1000 nM	–	> 1000 nM	–	–	–	–
COc1ncc2cc1NS(=O)(=O)c1cccc(c1)C(=O)NCC1CCN(CC1)c1ccnc3ccc-2cc13 [compound 6]	< 100 nM	11 nM	< 100 nM	72 nM	> 1000 nM	–	–	–	–
COc1ncc2cc1NS(=O)(=O)c1cccc(c1)C(=O)NCCCCNc1ccnc3ccc-2cc13 [compound 7]	> 1000 nM	–	> 1000 nM	–	> 1000 nM	–	–	–	–
COc1ncc2cc1NS(=O)(=O)c1cccc(c1)C(=O)NCc1cncc(c1)-c1cnc3sc-2nn13 [compound 8]	< 100 nM	7 nM	> 1000 nM	–	> 1000 nM	–	–	–	–
O=C1NCc2cncc(c2)-c2cnc3sc(nn23)-c2cnc(O)c(c2)NS(=O)(=O)c2cccc1c2 [compound 9]	100 to 1000 nM	–	> 1000 nM	–	100 to 1000 nM	–	–	–	–
COc1ncc2cc1NS(=O)(=O)c1cccc(c1)C(=O)NCc1cncc(c1)-c1cnn3ccc-2nc13 [compound 11]	< 100 nM	0.4 nM	< 100 nM	4 nM	> 1000 nM	–	–	–	–
COc1ncc2cc1NS(=O)(=O)c1cccc(c1)C(=O)NCc1cncc(c1)-c1cnc3ccc-2nn13 [compound 12]	< 100 nM	0.4 nM	< 100 nM	5 nM	> 1000 nM	–	–	–	–
COc1ncc2cc1NS(=O)(=O)c1cccc(c1)C(=O)NCc1cccc(c1)-c1cnc3ccc-2nn13 [compound 13]	< 100 nM	0.4 nM	< 100 nM	10 nM	> 1000 nM	–	–	–	–
COc1ncc2cc1NS(=O)(=O)c1cccc(c1)C(=O)NCc1cc(ccn1)-c1ccnc3ccc-2cc13 [compound 15]	< 100 nM	20 nM	100 to 1000 nM	–	> 1000 nM	–	–	–	–
COc1ncc2cc1NS(=O)(=O)c1cccc(c1)C(=O)NCc1cccc(c1)-c1cnc3sc-2nn13 [compound 17]	< 100 nM	9 nM	100 to 1000 nM	–	> 1000 nM	–	–	–	–
COc1ncc2cc1NS(=O)(=O)c1cccc(c1)C(=O)NCCn1cc(cn1)-c1cnc3ccc-2nn13 [compound 18]	< 100 nM	5 nM	< 100 nM	67 nM	> 1000 nM	–	–	–	–
COc1ncc2cc1NS(=O)(=O)c1cccc(c1)C(=O)NCCn1cc(cn1)-c1ccnc3ccc-2cc13 [compound 19]	< 100 nM	4 nM	< 100 nM	21 nM	> 1000 nM	–	–	–	–
COc1ncc2cc1NS(=O)(=O)c1cccc(c1)C(=O)NCc1cncc(c1)-c1c[nH]c3ncc-2cc13 [compound 20]	< 100 nM	80 nM	100 to 1000 nM	–	> 1000 nM	–	–	–	–
COc1ncc2cc1NS(=O)(=O)c1cccc(c1)C(=O)NCc1cncc(c1)-c1ncnc3sc-2cc13 [compound 21]	< 100 nM	85 nM	> 1000 nM	–	100 to 1000 nM	–	–	–	–
COc1ncc2cc1NS(=O)(=O)c1cccc(c1)C(=O)NCCN1CC=C(CC1)c1cnc3ccc-2nn13 [compound 23]	< 100 nM	5 nM	< 100 nM	22 nM	> 1000 nM	–	–	–	–
COc1ncc2cc1NS(=O)(=O)c1cccc(c1)C(=O)N(C)CC1CCN(CC1)c1ccnc3ccc-2cc13 [compound 24]	< 100 nM	3 nM	< 100 nM	4 nM	> 1000 nM	–	–	–	–
COc1ncc2cc1NS(=O)(=O)c1cccc(c1)C(=O)NCCn1cc(cn1)-c1cnn3ccc-2nc13 [compound 26]	< 100 nM	4 nM	< 100 nM	40 nM	> 1000 nM	–	–	–	–
COc1ncc2cc1NS(=O)(=O)c1cccc(c1)C(=O)NCc1cncc(c1)-c1ncnc3c1SC2=C3 [compound 27]	100 to 1000 nM	–	> 1000 nM	–	< 100 nM	40 nM	–	–	–
COc1ncc2cc1NS(=O)(=O)c1cccc(c1)C(=O)NCc1cccc(c1)-c1ncnc3c1SC2=C3 [compound 28]	100 to 1000 nM	–	> 1000 nM	–	100 to 1000 nM	–	–	–	–
COc1ncc2cc1NS(=O)(=O)c1cc(c(F)cc1F)C(=O)NCc1cccc(c1)-c1ccnc3ccc-2cc13 [compound 29]	< 100 nM	6 nM	100 to 1000 nM	–	> 1000 nM	–	–	–	–
COc1ncc2cc1NS(=O)(=O)c1cccc(c1)C(=O)NCc1cc(cs1)-c1ncnc3c1SC2=C3 [compound 74]	> 1000 nM	–	–	–	100 to 1000 nM	–	–	–	–
COc1ncc2cc1NS(=O)(=O)c1cccc(c1)C(=O)N[C@H]1CCCN(C1)c1ncnc3c1SC2=C3 [compound 75]	> 1000 nM	–	–	–	> 1000 nM	–	–	–	–
COc1ncc2cc1NS(=O)(=O)c1cccc(c1)C(=O)N[C@@H]1CCCN(C1)c1ncnc3c1SC2=C3 [compound 76]	> 1000 nM	–	–	–	100 to 1000 nM	–	–	–	–
COc1ncc2cc1NS(=O)(=O)c1cccc(c1)C(=O)NCc1cc(ccn1)-c1cnc3sc-2nn13 [compound 96]	–	–	–	–	–	–	8.8 nM	< 100 nM	100 to 1000 nM
